In US12077503B2, “Substituted cyclic amides and their use as herbicides” (FMC CORPORATION, priority 2015, dated 2024):

Key:
Format in all cases: in vivo
corn (Zea mays) = experiment: Test A postemergence; conditions: Zea mays, post-emergence, 240 h, Postemergence, read-out: Corn plant response rating (0 to 100 scale)
Summary of the method: (§1)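 Preemergence soil spray on seeded pots or post-emergence spray on 1–2 leaf plants, in loam–sand blend. Greenhouse ~10 d. Visual rating 0–100 against untreated plants.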

[1] = test system: ryegrass, Italian (Italian ryegrass, Lolium multiflorum); experiment: Test A postemergence; conditions: Lolium multiflorum, post-emergence, 240 h, Postemergence, read-out: Ryegrass, Italian plant response rating (0 to 100 scale)
Summary of the method: as §1

[2] = test system: pigweed (Amaranthus retroflexus); experiment: Test A postemergence; conditions: Amaranthus retroflexus, post-emergence, 240 h, Postemergence, read-out: Pigweed plant response rating (0 to 100 scale)
Summary of the method: as §1

Kochia (Kochia scoparia) [3] = experiment: Test A postemergence; conditions: Bassia scoparia, post-emergence, 240 h, Postemergence, read-out: Kochia plant response rating (0 to 100 scale)
Summary of the method: as §1

[4] = test system: giant foxtail (Setaria faberii); experiment: Test A postemergence; conditions: Setaria faberi, post-emergence, 240 h, Postemergence, read-out: Foxtail, Giant plant response rating (0 to 100 scale)
Summary of the method: as §1

[5] = test system: wheat (Triticum aestivum); experiment: Test A postemergence; conditions: Triticum aestivum, post-emergence, 240 h, Postemergence, read-out: Wheat plant response rating (0 to 100 scale)
Summary of the method: as §1

[6] = test system: blackgrass (Alopecurus myosuroides); experiment: Test A postemergence; conditions: Alopecurus myosuroides, post-emergence, 240 h, Postemergence, read-out: Blackgrass plant response rating (0 to 100 scale)
Summary of the method: as §1

[7] = test system: barnyardgrass (Echinochloa crus-galli); experiment: Test A postemergence; conditions: Echinochloa crus-galli, post-emergence, 240 h, Postemergence
Summary of the method: as §1

[8] = test system: Galium (catchweed bedstraw, Galium aparine); experiment: Test A postemergence; conditions: Galium, post-emergence, 240 h, Postemergence, read-out: Galium plant response rating (0 to 100 scale)
Summary of the method: as §1

[9] = test system: ragweed (common ragweed, Ambrosia elatior); experiment: Test A postemergence; conditions: Ambrosia artemisiifolia, post-emergence, 240 h, Postemergence, read-out: Ragweed plant response rating (0 to 100 scale)
Summary of the method: as §1

[10] = test system: ducksalad (Heteranthera limosa); experiment: Test B flooded paddy test; conditions: Heteranthera limosa, 360 h, Flood, 250 g ai/ha; visually evaluated after 13 to 15 d; read-out: Plant response rating, Ducksalad (0 to 100 scale where 0 is no effect and 100 is complete control)
Summary of the method: (§2)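 Percent control, visually estimated after 13–15 d in the greenhouse on a 0–100 basis, compares treated pots with untreated ones; compound was put into paddy water 3 cm above the soil when plants had two leaves.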

[11] = test system: sedge, umbrella (small-flower umbrella sedge, Cyperus difformis); experiment: Test B flooded paddy test; conditions: Cyperus difformis, 360 h, Flood, 250 g ai/ha; visually evaluated after 13 to 15 d; read-out: Plant response rating, Sedge, Umbrella (0 to 100 scale where 0 is no effect and 100 is complete control)
Summary of the method: as §2

[12] = test system: barnyardgrass (Echinochloa crus-galli); experiment: Test B flooded paddy test; conditions: Echinochloa crus-galli, 360 h, Flood, 250 g ai/ha; visually evaluated after 13 to 15 d; read-out: Plant response rating, Barnyardgrass (0 to 100 scale where 0 is no effect and 100 is complete control)
Summary of the method: as §2

rice (Oryra sativa) = experiment: Test B flooded paddy test; conditions: Oryza sativa, 360 h, Flood, 250 g ai/ha; visually evaluated after 13 to 15 d; read-out: Plant response rating, Rice (0 to 100 scale where 0 is no effect and 100 is complete control)
Summary of the method: as §2

[13] = test system: ryegrass, Italian (Italian ryegrass, Lolium multiflorum); experiment: Test A preemergence; conditions: Lolium multiflorum, pre-emergence, 240 h, Preemergence
Summary of the method: as §1

[14] = test system: pigweed (Amaranthus retroflexus); experiment: Test A preemergence; conditions: Amaranthus retroflexus, pre-emergence, 240 h, Preemergence
Kochia (Kochia scoparia) [15] = experiment: Test A preemergence; conditions: Bassia scoparia, pre-emergence, 240 h, Preemergence
Summary of the method: as §1

[16] = test system: giant foxtail (Setaria faberii); experiment: Test A preemergence; conditions: Setaria faberi, pre-emergence, 240 h, Preemergence
Summary of the method: as §1

[17] = test system: barnyardgrass (Echinochloa crus-galli); experiment: Test A preemergence; conditions: Echinochloa crus-galli, pre-emergence, 240 h, Preemergence
Summary of the method: as §1

[18] = test system: ragweed (common ragweed, Ambrosia elatior); experiment: Test A preemergence; conditions: Ambrosia artemisiifolia, pre-emergence, 240 h, Preemergence
Summary of the method: as §1

[19] = 125 g ai/ha, visual rating about 10 d after treatment
[20] = 31 g ai/ha, 0 is no effect, 100 is complete control

Which results are given for `Cc1cccc([C@H]2CN(C)C(=O)[C@@H]2C(=O)Nc2cccnc2F)c1` [Compound 1345]?
plant injury at 125 g/ha (corn (Zea mays); [19]): 0%; plant injury at 31 g/ha (corn (Zea mays); [20]): 0%; pest or weed control at 125 g/ha [1, 19]: 0%; pest or weed control at 31 g/ha [1, 20]: 0%; pest or weed control at 125 g/ha [2, 19]: 0%; pest or weed control at 31 g/ha [2, 20]: 0%; pest or weed control at 125 g/ha (Kochia (Kochia scoparia) [3]; [19]): 0%; pest or weed control at 31 g/ha (Kochia (Kochia scoparia) [3]; [20]): 0%; pest or weed control at 125 g/ha [4, 19]: 90%; pest or weed control at 31 g/ha [4, 20]: 20%; plant injury at 125 g/ha [5, 19]: 0%; plant injury at 31 g/ha [5, 20]: 0%; pest or weed control at 125 g/ha [6, 19]: 20%; pest or weed control at 31 g/ha [6, 20]: 0%; pest or weed control at 125 g/ha ([7]; 125 g ai/ha, visual rating about 10 d after treatment, read-out: Barnyardgrass plant response rating (0 to 100 scale, 0 no effect, 100 complete control)): 90%; pest or weed control at 31 g/ha ([7]; 31 g ai/ha, 0 is no effect, 100 is complete control, read-out: Barnyardgrass plant response rating (0 to 100 scale)): 50%; pest or weed control at 125 g/ha [8, 19]: 20%; pest or weed control at 31 g/ha [8, 20]: 0%; pest or weed control at 125 g/ha [9, 19]: 0%; pest or weed control at 31 g/ha [9, 20]: 0%; pest or weed control at 250 g/ha [10]: 95%; pest or weed control at 250 g/ha [11]: 0%; pest or weed control at 250 g/ha [12]: 90%; pest or weed control at 250 g/ha (rice (Oryra sativa)): 0%; pest or weed control at 31 g/ha ([13]; 31 g ai/ha, 0 to 100 scale where 0 is no effect and 100 is complete control, read-out: Ryegrass, Italian plant response rating): 0%; pest or weed control at 125 g/ha ([13]; 125 g ai/ha, 0 to 100 scale (0 no effect, 100 complete control), read-out: Plant response rating, Ryegrass, Italian): 0%; pest or weed control at 31 g/ha ([14]; 31 g ai/ha, 0 to 100 scale where 0 is no effect and 100 is complete control, read-out: Pigweed plant response rating): 0%; pest or weed control at 125 g/ha ([14]; 125 g ai/ha, 0 to 100 scale (0 no effect, 100 complete control), read-out: Plant response rating, Pigweed): 0%; pest or weed control at 31 g/ha (Kochia (Kochia scoparia) [15]; 31 g ai/ha, 0 to 100 scale where 0 is no effect and 100 is complete control, read-out: Kochia plant response rating): 0%; pest or weed control at 125 g/ha (Kochia (Kochia scoparia) [15]; 125 g ai/ha, 0 to 100 scale (0 no effect, 100 complete control), read-out: Plant response rating, Kochia): 40%; pest or weed control at 31 g/ha ([16]; 31 g ai/ha, 0 to 100 scale where 0 is no effect and 100 is complete control, read-out: Foxtail, Giant plant response rating): 90%; pest or weed control at 125 g/ha ([16]; 125 g ai/ha, 0 to 100 scale (0 no effect, 100 complete control), read-out: Plant response rating, Foxtail, Giant): 100%; pest or weed control at 31 g/ha ([17]; 31 g ai/ha, 0 to 100 scale where 0 is no effect and 100 is complete control, read-out: Barnyardgrass plant response rating): 80%; pest or weed control at 125 g/ha ([17]; 125 g ai/ha, 0 to 100 scale (0 no effect, 100 complete control), read-out: Plant response rating, Barnyardgrass): 100%; pest or weed control at 31 g/ha ([18]; 31 g ai/ha, 0 to 100 scale where 0 is no effect and 100 is complete control, read-out: Ragweed plant response rating): 0%; pest or weed control at 125 g/ha ([18]; 125 g ai/ha, 0 to 100 scale (0 no effect, 100 complete control), read-out: Plant response rating, Ragweed): 60%
